Structures are written as SMILES. pIC50, pKi: −log10 of the molar value.

Series [1] in a line: DRUGMATRIX: beta-Lactamase enzyme inhibition (substrate: Nitrocefin). More on the design: species or system Bacillus cereus. Particulars: Not Active = under 50% inhibition at 10 µM.
The next series addresses Substance-P receptor (Homo sapiens, UniProt P25103). In kind it is cell membranes, CHO, Membrane. Particulars: cho.
Series [2] deals with Sodium-dependent noradrenaline transporter (Homo sapiens, UniProt P23975). In words: DRUGMATRIX: Norepinephrine Transporter radioligand binding (ligand: [125I] RTI-55). In kind it is cell membranes, MDCK, Membrane. To be noted: mdck; Not Active = under 50% inhibition at 10 µM.
Series [3] addresses T1, Nitric oxide synthase, inducible (Mus musculus, UniProt P29477).
T1 sequence (P29477 whole entry): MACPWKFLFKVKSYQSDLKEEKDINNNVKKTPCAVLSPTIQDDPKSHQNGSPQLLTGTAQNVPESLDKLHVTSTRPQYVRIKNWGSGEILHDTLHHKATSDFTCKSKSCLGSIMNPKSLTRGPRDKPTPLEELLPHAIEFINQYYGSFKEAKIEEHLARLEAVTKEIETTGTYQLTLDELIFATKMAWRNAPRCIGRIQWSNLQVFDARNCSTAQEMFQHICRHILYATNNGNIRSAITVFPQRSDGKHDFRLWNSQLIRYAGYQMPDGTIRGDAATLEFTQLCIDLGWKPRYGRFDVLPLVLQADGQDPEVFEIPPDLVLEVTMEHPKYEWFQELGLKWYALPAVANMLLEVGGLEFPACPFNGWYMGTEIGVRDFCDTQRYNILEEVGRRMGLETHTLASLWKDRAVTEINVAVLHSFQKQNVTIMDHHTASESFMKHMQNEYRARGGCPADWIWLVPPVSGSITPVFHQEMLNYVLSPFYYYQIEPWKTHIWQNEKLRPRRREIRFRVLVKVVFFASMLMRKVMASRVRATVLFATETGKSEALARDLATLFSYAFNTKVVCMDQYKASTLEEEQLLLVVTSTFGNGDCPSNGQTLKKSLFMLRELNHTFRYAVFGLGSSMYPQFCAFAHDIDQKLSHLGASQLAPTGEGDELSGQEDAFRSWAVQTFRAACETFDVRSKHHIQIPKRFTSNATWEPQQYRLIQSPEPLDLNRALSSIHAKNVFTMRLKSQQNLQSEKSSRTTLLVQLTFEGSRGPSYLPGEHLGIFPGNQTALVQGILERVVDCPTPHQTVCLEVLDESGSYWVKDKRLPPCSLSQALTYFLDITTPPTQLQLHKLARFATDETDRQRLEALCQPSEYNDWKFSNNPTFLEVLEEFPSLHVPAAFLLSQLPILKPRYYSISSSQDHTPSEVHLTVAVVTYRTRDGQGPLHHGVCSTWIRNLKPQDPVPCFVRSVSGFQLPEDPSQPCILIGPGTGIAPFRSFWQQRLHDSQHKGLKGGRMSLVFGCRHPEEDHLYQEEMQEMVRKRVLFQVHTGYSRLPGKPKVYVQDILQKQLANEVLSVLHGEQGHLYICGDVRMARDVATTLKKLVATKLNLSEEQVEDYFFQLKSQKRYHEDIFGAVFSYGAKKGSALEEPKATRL
More on the design: species or system Escherichia coli.

The target in series [4] is Beta-3 adrenergic receptor (Homo sapiens, UniProt P13945). Briefly: DRUGMATRIX: Adrenergic beta3 radioligand binding (ligand: [125I] Cyanopindolol). The series is classed as cell membranes, HEK293, Membrane. Particulars: hek293; Not Active = under 50% inhibition at 10 µM.
A short description of series [5]: DRUGMATRIX: Calcium Channel Type L, Benzothiazepine radioligand binding (ligand: [3H] Diltiazem). The series is classed as cell membranes, Rattus norvegicus, Wistar, Brain, Membrane. To be noted: Not Active = under 50% inhibition at 10 µM; for pIC50: read-out: IC50; for pKi: read-out: Ki.
The next series has as its target Cytochrome P450 2C19 (Homo sapiens, UniProt P33261). To be noted: bti-tn-5b1-4. Further: in other assays of this panel Not Active means under 50% inhibition at 10 µM.

Sequence of Sodium-dependent noradrenaline transporter (P23975 whole entry): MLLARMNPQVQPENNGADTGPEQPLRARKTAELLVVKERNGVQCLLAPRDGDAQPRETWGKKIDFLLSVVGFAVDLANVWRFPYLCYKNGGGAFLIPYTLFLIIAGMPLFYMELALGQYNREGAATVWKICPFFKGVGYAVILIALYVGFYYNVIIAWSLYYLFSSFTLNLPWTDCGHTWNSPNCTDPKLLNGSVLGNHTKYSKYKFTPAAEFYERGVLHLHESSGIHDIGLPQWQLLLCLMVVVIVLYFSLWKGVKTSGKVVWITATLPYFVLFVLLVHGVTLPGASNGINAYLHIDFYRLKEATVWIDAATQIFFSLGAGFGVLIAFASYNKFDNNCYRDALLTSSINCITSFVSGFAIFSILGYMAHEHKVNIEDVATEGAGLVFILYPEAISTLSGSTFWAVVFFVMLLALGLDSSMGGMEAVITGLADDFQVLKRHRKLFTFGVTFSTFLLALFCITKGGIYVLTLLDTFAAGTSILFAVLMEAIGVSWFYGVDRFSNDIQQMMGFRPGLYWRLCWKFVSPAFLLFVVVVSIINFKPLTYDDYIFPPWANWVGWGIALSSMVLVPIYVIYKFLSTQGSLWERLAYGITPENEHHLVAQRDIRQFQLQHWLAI
Sequence of Substance-P receptor (P25103 whole entry): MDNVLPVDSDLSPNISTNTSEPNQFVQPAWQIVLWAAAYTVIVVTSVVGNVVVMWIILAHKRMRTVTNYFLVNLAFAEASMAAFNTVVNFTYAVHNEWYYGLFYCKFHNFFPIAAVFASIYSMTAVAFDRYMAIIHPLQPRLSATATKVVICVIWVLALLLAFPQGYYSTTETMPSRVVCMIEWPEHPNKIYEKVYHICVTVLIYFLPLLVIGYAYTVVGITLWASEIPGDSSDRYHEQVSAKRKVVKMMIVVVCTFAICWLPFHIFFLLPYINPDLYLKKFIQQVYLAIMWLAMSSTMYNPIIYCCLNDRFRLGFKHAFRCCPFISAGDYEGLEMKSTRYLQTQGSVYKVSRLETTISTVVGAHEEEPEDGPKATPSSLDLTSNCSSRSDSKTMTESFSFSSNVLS
Sequence of Beta-3 adrenergic receptor (P13945 whole entry): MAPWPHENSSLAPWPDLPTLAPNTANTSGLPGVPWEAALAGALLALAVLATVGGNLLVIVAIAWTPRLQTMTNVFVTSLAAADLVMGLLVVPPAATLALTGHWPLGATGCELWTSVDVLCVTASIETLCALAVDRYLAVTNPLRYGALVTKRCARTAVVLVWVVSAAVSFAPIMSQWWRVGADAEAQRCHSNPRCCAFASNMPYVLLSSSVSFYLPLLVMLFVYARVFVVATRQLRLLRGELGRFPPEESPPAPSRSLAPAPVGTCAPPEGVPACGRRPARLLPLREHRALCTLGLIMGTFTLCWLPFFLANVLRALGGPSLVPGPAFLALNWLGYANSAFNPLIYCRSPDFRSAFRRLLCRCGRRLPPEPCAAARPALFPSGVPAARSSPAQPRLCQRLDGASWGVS
Sequence of Cytochrome P450 2C19 (P33261 whole entry): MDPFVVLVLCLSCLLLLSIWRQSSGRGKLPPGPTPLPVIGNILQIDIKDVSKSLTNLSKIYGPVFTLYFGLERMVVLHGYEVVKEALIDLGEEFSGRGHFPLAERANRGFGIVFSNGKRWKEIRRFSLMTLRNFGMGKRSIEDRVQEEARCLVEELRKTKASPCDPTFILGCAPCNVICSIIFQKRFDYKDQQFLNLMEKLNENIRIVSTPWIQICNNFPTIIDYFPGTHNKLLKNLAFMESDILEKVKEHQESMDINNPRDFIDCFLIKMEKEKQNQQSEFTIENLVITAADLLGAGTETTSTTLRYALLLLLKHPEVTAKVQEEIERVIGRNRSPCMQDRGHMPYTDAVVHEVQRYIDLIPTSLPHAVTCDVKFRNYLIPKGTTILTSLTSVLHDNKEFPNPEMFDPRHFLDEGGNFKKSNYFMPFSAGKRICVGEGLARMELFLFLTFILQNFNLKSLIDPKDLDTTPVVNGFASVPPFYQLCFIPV

In the case of `O=C(c1ccccc1C(F)(F)F)N1CCC(Cc2ccccc2)CC1`, the IC50 entry (in series [1]; against Substance-P receptor; in series [2]; in series [3]; in series [4]; in series [5]) was “Not Active” throughout. For the same compound, the Ki result in series [1] and in series [5] was “Not Active” each time.

In the case of `COc1ccc(C(=O)N2CCCC2=O)cc1`, the IC50 result (in series [1]; against Substance-P receptor; in series [2]; in series [3]; in series [4]; in series [5]) was “Not Active” each time. Besides, the Ki result in series [1] and in series [5] was “Not Active” throughout.

For `NCCCC(O)(P(=O)(O)O)P(=O)(O)O` [ALENDRONIC ACID], the IC50 entry (in series [1]; on Substance-P receptor; in series [2]; in series [3]; in series [4]; in series [5]) was “Not Active” throughout. For the same compound, the Ki result in series [1] and in series [5] was “Not Active” throughout.

`CC1(C)S[C@@H]2[C@H](NC(=O)[C@H](N)c3ccccc3)C(=O)N2[C@H]1C(=O)O` [AMPICILLIN]: the IC50 entry (in series [1]; on Substance-P receptor; in series [3]; against Cytochrome P450 2C19; in series [4]; in series [5]) was “Not Active” each time. Also, the Ki result (in series [1]; on Cytochrome P450 2C19; in series [5]) was “Not Active” in each case.

`CN1[C@@H]2CC[C@H]1C[C@@H](OC(=O)C(CO)c1ccccc1)C2` (stereo not given in full) [ATROPINE]: the IC50 result (in series [1]; against Substance-P receptor; in series [2]; in series [3]; in series [4]; in series [5]) was “Not Active” throughout. Moreover, the Ki result in series [1] and in series [5] was “Not Active” each time.

Take `Nc1ccn([C@@H]2O[C@H](CO)[C@@H](O)[C@@H]2O)c(=O)n1` [CYTARABINE]: the IC50 result (in series [1]; at Substance-P receptor; in series [2]; in series [3]; in series [4]; in series [5]) was “Not Active” throughout. The Ki result in series [1] and in series [5] was “Not Active” in each case.

In the case of `C[C@@H]1C[C@H]2[C@@H]3CCC4=CC(=O)C=C[C@]4(C)[C@@]3(F)[C@@H](O)C[C@]2(C)[C@@]1(O)C(=O)CO` [DEXAMETHASONE], the IC50 result (in series [1]; against Substance-P receptor; in series [2]; in series [3]; in series [4]; in series [5]) was “Not Active” throughout. Also, the Ki result in series [1] and in series [5] was “Not Active” in each case.

The term pIC50 denotes −log10 of the IC50, conventionally taken in molar units. Usually pKi stands for the Ki on a negative log10 scale, so that one unit is a factor of ten. Take `CC[C@H]1CN2CCc3cc(OC)c(OC)cc3[C@@H]2C[C@@H]1C[C@H]1NCCc2cc(OC)c(OC)cc21` [EMETINE]: the IC50 result (in series [1]; against Substance-P receptor; in series [2]; in series [3]; in series [4]) was “Not Active” throughout. For the same compound, the Ki result in series [1] is given as “Not Active”. In series [5], the pIC50 is 5.63. In addition, the pKi in series [5] is 5.68.

For the compound `COc1cc([C@@H]2c3cc4c(cc3[C@@H](O[C@@H]3O[C@@H]5CO[C@@H](C)O[C@H]5[C@H](O)[C@H]3O)[C@H]3COC(=O)[C@H]23)OCO4)cc(OC)c1O` [ETOPOSIDE], the IC50 result (in series [1]; against Substance-P receptor; in series [2]; in series [3]; in series [4]; in series [5]) was “Not Active” each time. The Ki entry in series [1] and in series [5] was “Not Active” in each case.

Regarding `CC(C)(C)NC(=O)[C@H]1CC[C@H]2[C@@H]3CC[C@H]4NC(=O)C=C[C@]4(C)[C@H]3CC[C@]12C` [FINASTERIDE], the IC50 result (in series [1]; against Substance-P receptor; in series [2]; in series [3]; in series [4]; in series [5]) was “Not Active” in each case. For the same compound, the Ki result in series [1] and in series [5] was “Not Active” throughout.

With `COc1ccc2c3c1O[C@H]1C[C@@H](O)C=C[C@@]31CCN(C)C2` [GALANTAMINE], the IC50 entry (in series [1]; at Substance-P receptor; in series [2]; in series [3]; in series [4]; in series [5]) was “Not Active” throughout. Besides, the Ki result in series [1] and in series [5] was “Not Active” in each case.

With `CC(C)=CCC/C(C)=C/CO` [GERANIOL], the IC50 result (in series [1]; on Substance-P receptor; in series [2]; in series [3]; in series [4]; in series [5]) was “Not Active” each time. The Ki entry in series [1] and in series [5] was “Not Active” each time.

For `Oc1c(Cl)cc(Cl)c(Cl)c1Cc1c(O)c(Cl)cc(Cl)c1Cl` [HEXACHLOROPHENE], the IC50 result (in series [1]; on Substance-P receptor; in series [2]; in series [3]; in series [4]; in series [5]) was “Not Active” each time. Moreover, the Ki result in series [1] and in series [5] was “Not Active” in each case.

Regarding `CC(=O)[C@@]1(O)CC[C@H]2[C@@H]3CCC4=CC(=O)CC[C@]4(C)[C@H]3CC[C@@]21C` [HYDROXYPROGESTERONE], the IC50 entry (in series [1]; against Substance-P receptor; in series [2]; in series [3]; in series [4]; in series [5]) was “Not Active” in each case. The Ki result in series [1] and in series [5] was “Not Active” each time.

`COC1=C(OC)C(=O)C(CCCCCCCCCCO)=C(C)C1=O` [IDEBENONE]: the IC50 entry (in series [1]; against Substance-P receptor; in series [2]; in series [3]; in series [4]; in series [5]) was “Not Active” each time. Moreover, the Ki result in series [1] and in series [5] was “Not Active” each time.

Turning to `Cc1c(OCC(F)(F)F)ccnc1C[S+]([O-])c1nc2ccccc2[nH]1` (stereo not given) [LANSOPRAZOLE], the IC50 entry (in series [1]; against Substance-P receptor; in series [2]; in series [3]; in series [4]; in series [5]) was “Not Active” in each case. Besides, the Ki entry in series [1] and in series [5] was “Not Active” throughout.

With `COc1ccc2[nH]cc(CCNC(C)=O)c2c1` [MELATONIN], the IC50 entry (in series [1]; against Substance-P receptor; in series [2]; in series [3]; in series [4]; in series [5]) was “Not Active” each time. Also, the Ki result in series [1] and in series [5] was “Not Active” throughout.

For the compound `CC(C)NCC(O)COc1cccc2[nH]ccc12` (stereo not given) [PINDOLOL], the IC50 result (in series [1]; against Substance-P receptor; in series [2]; in series [3]; in series [5]) was “Not Active” throughout. Besides, the Ki entry in series [1] and in series [5] was “Not Active” each time.

On to `CCCNCC(O)COc1ccccc1C(=O)CCc1ccccc1` (stereo not given) [PROPAFENONE], for which, in series [1], the IC50 entry is reported as “Not Active” and the Ki entry is “Not Active”. For the same compound, at Substance-P receptor, the IC50 entry is listed as “Not Active”. In addition, the IC50 result in series [3] is “Not Active”. Further, in series [5], the pIC50 is 6.11 and the pKi is 6.16.

These data come from ChEMBL document CHEMBL1909046, “DrugMatrix in vitro pharmacology data”.
